According to patent publication US11730712B2, “Functionalized long-chain hydrocarbon mono- and di-carboxylic acids and derivatives thereof, and their use for the prevention or treatment of disease” (ESPERVITA THERAPEUTICS, INC., priority 2021, dated 2023):

Test system: liver fibrosis gene panel (770 genes)
Assay: Nanostring nCounter Fibrosis panel gene expression in liver of DEN-injected mice
Type: in vivo, mouse
Protocol: Nanostring Analysis. RNA was extracted from paired liver and tumor tissue from vehicle, Compound I-1 (100 mg/kg) and Compound I-32 (100 mg/kg) treated mice using an RNeasy kit (Qiagen, Calif., USA) as per manufacturer's protocol. All RNA samples passed the BioAnalyzer quality control test. The expression of target genes in liver and tumor were analyzed using the nCounter Fibrosis and Cancer Panel (NanoString Technologies, Inc., WA, USA), respectively according to manufacturer's protocol at the McMaster Genomics Facility. Technical and biological normalization against global geometric mean was performed in nSolver 4.0 software (NanoString Technologies). Technical normalization was performed in the nSolver software (version 4.0.70) by normalizing sample target raw counts to the geometric mean of positive control spike-ins. Biological normalization was performed by normalizing sample target raw counts to the geometric mean of selected housekeeping genes (Ppia, Nubp1, Nol7, Armh3, Rplp0, Cnot10, Pgk1, and Acad9). Pathway scores were calculated as the first principal component of the normalized expression values for all genes in each pathway and samples were compiled according to experimental groups to determine average pathway scores. Statistical significance was calculated between experimental groups using multiple t-tests and p-values were corrected for multiple comparisons using Benjamin-Hochberg false discovery rate.
Molecular analysis. To identify the pathways modulated in the liver and tumor tissue, nanostring analysis of fibrosis and cancer, pathways, respectively were completed in an n=8 mice treated with vehicle or Compound I-32 or Compound I-1 at 100 mg/kg.

## CC(C)(CCCCc1ccc(CCCCC(C)(C)C(=O)O)cc1)C(=O)O [Compound I-1, 6-[4-(5-carboxy-5-methylhexyl)-phenyl]-2,2-dimethylhexanoic acid]
100 mg/kg, 4 weeks
  number of genes downregulated: 170
  number of genes upregulated: 86
  number of genes with altered expression relative to vehicle controls (770 genes measured): 256
NM_00761-1, 100 mg/kg, vs vehicle
  Casp7 Log2FC: −0.522
NM_007409, 100 mg/kg, vs vehicle
  Adh1 Log2FC: 0.603
NM_007437, 100 mg/kg, vs vehicle
  Aldh3a2 Log2FC: 1.1
NM_007457, 100 mg/kg, vs vehicle
  Ap1s1 Log2FC: 0.242
NM_007468, 100 mg/kg, vs vehicle
  Apoa4 Log2FC: −4.07
NM_007614, 100 mg/kg, vs vehicle
  Ctnnb1 Log2FC: −0.17
NM_007643, 100 mg/kg, vs vehicle
  Cd36 Log2FC: 1.32
NM_007664, 100 mg/kg, vs vehicle
  Cdh2 Log2FC: −0.164
NM_007678, 100 mg/kg, vs vehicle
  Cebpa Log2FC: −0.363
NM_007686, 100 mg/kg, vs vehicle
  Cfi Log2FC: −0.56
NM_007695, 100 mg/kg, vs vehicle
  Chil1 Log2FC: 2.06
NM_007742, 100 mg/kg, vs vehicle
  Col1a1 Log2FC: −1.21
NM_007743, 100 mg/kg, vs vehicle
  Col1a2 Log2FC: −0.924
NM_007748, 100 mg/kg, vs vehicle
  Cox6a1 Log2FC: 0.432
NM_007749, 100 mg/kg, vs vehicle
  Cox7c Log2FC: 0.501
NM_007768, 100 mg/kg, vs vehicle
  Crp Log2FC: −0.931
NM_007807, 100 mg/kg, vs vehicle
  Cybb Log2FC: −0.522
NM_007824, 100 mg/kg, vs vehicle
  Cyp7a1 Log2FC: −1.07
NM_007908, 100 mg/kg, vs vehicle
  Eef2k Log2FC: 0.422
NM_007940, 100 mg/kg, vs vehicle
  Ephx2 Log2FC: 0.794
NM_007976, 100 mg/kg, vs vehicle
  F5 Log2FC: −0.363
NM_007987, 100 mg/kg, vs vehicle
  Fas Log2FC: 0.528
NM_007988, 100 mg/kg, vs vehicle
  Fasn Log2FC: 0.831
NM_008063, 100 mg/kg, vs vehicle
  Slc37a4 Log2FC: −1.17
NM_008086, 100 mg/kg, vs vehicle
  Gas1 Log2FC: −0.608
NM_008150, 100 mg/kg, vs vehicle
  Gpc4 Log2FC: −0.469
NM_008152, 100 mg/kg, vs vehicle
  Gpr65 Log2FC: −0.447
NM_008212, 100 mg/kg, vs vehicle
  Hadh Log2FC: 0.28
NM_008256, 100 mg/kg, vs vehicle
  Hmgcs2 Log2FC: 0.291
NM_008288, 100 mg/kg, vs vehicle
  Hsd11b1 Log2FC: −1.33
NM_008292, 100 mg/kg, vs vehicle
  Hsd17b4 Log2FC: 0.637
NM_008302, 100 mg/kg, vs vehicle
  Hsp90ab1 Log2FC: 0.407
NM_008320, 100 mg/kg, vs vehicle
  Irf8 Log2FC: −0.55
NM_008348, 100 mg/kg, vs vehicle
  ll10ra Log2FC: −0.737
NM_008390, 100 mg/kg, vs vehicle
  Irf1 Log2FC: −0.32
NM_008395, 100 mg/kg, vs vehicle
  Itch Log2FC: −0.277
NM_008509, 100 mg/kg, vs vehicle
  Lpl Log2FC: 1.98
NM_008512, 100 mg/kg, vs vehicle
  Lrp1 Log2FC: −0.339
NM_008533, 100 mg/kg, vs vehicle
  Cd180 Log2FC: −0.776
NM_008555, 100 mg/kg, vs vehicle
  Masp1 Log2FC: −0.24
NM_008569, 100 mg/kg, vs vehicle
  Anapc1 Log2FC: −0.378
NM_008605, 100 mg/kg, vs vehicle
  Mmp12 Log2FC: −1.53
NM_008608, 100 mg/kg, vs vehicle
  Mmp14 Log2FC: −0.522
NM_008677, 100 mg/kg, vs vehicle
  Ncf4 Log2FC: −0.746
NM_008683, 100 mg/kg, vs vehicle
  Nedd8 Log2FC: 0.139
NM_008689, 100 mg/kg, vs vehicle
  Nfkb1 Log2FC: −0.241
NM_008797, 100 mg/kg, vs vehicle
  Pcx Log2FC: −0.57
NM_008874, 100 mg/kg, vs vehicle
  Plcb3 Log2FC: −0.321
NM_008877, 100 mg/kg, vs vehicle
  Plg Log2FC: −0.393
NM_008910, 100 mg/kg, vs vehicle
  Ppm1a Log2FC: 0.148
NM_008927, 100 mg/kg, vs vehicle
  Map2k1 Log2FC: −0.145
NM_008948, 100 mg/kg, vs vehicle
  Psmc3 Log2FC: 0.145
NM_009007, 100 mg/kg, vs vehicle
  Rac1 Log2FC: −0.093
NM_009117, 100 mg/kg, vs vehicle
  Saa1/2 Log2FC: −3.03
NM_009127, 100 mg/kg, vs vehicle
  Scd1 Log2FC: 0.478
NM_009169, 100 mg/kg, vs vehicle
  Sem1 Log2FC: 0.385
NM_009263, 100 mg/kg, vs vehicle
  Spp1 Log2FC: −0.879
NM_009279, 100 mg/kg, vs vehicle
  Ssr4 Log2FC: −0.321
NM_009370, 100 mg/kg, vs vehicle
  Tgfbr1 Log2FC: −0.445
NM_009422, 100 mg/kg, vs vehicle
  Traf2 Log2FC: −0.247
NM_009425, 100 mg/kg, vs vehicle
  Tnfsf10 Log2FC: −0.823
NM_009465, 100 mg/kg, vs vehicle
  Axl Log2FC: −0.493
NM_009692, 100 mg/kg, vs vehicle
  Apoal Log2FC: −1.03
NM_009693, 100 mg/kg, vs vehicle
  Apob Log2FC: −0.289
NM_009720, 100 mg/kg, vs vehicle
  Atox1 Log2FC: 0.157
NM_009743, 100 mg/kg, vs vehicle
  Bcl2l1 Log2FC: −0.344
NM_009776, 100 mg/kg, vs vehicle
  Serping1 Log2FC: −0.631
NM_009779, 100 mg/kg, vs vehicle
  C3ar1 Log2FC: −0.618
NM_009790, 100 mg/kg, vs vehicle
  Calm1 Log2FC: −0.334
NM_009808, 100 mg/kg, vs vehicle
  Casp12 Log2FC: −0.633
NM_009810, 100 mg/kg, vs vehicle
  Casp3 Log2FC: −0.346
NM_009811, 100 mg/kg, vs vehicle
  Casp6 Log2FC: 0.266
NM_009812, 100 mg/kg, vs vehicle
  Casp8 Log2FC: 0.195
NM_009825, 100 mg/kg, vs vehicle
  Serpinh1 Log2FC: −0.486
NM_009870, 100 mg/kg, vs vehicle
  Cdk4 Log2FC: 0.26
NM_009888, 100 mg/kg, vs vehicle
  Cfh Log2FC: −1.41
NM_009911, 100 mg/kg, vs vehicle
  Cxcr4 Log2FC: −0.931
NM_009915, 100 mg/kg, vs vehicle
  Ccr2 Log2FC: −1.18
NM_009930, 100 mg/kg, vs vehicle
  Col3a1 Log2FC: −0.764
NM_009975, 100 mg/kg, vs vehicle
  Csnk2b Log2FC: 0.114
NM_009983, 100 mg/kg, vs vehicle
  Ctsd Log2FC: 0.297
NM_010011, 100 mg/kg, vs vehicle
  Cyp4a10/31/32 Log2FC: 3.15
NM_010185, 100 mg/kg, vs vehicle
  Fcer1g Log2FC: −0.406
NM_010196, 100 mg/kg, vs vehicle
  Fga Log2FC: −0.563
NM_010233, 100 mg/kg, vs vehicle
  Fn1 Log2FC: −0.666
NM_010325, 100 mg/kg, vs vehicle
  Got2 Log2FC: 0.224
NM_010378, 100 mg/kg, vs vehicle
  H2-Aa Log2FC: −0.78
NM_010380, 100 mg/kg, vs vehicle
  H2-D1 Log2FC: −0.266
NM_010382, 100 mg/kg, vs vehicle
  H2-Eb1 Log2FC: −0.772
NM_010386, 100 mg/kg, vs vehicle
  H2-Dma Log2FC: −0.391
NM_010387, 100 mg/kg, vs vehicle
  H2-DMB1 Log2FC: −0.938
NM_010398, 100 mg/kg, vs vehicle
  H2-T23 Log2FC: −0.403
NM_010406, 100 mg/kg, vs vehicle
  Hc Log2FC: −0.325
NM_010431, 100 mg/kg, vs vehicle
  Hif1a Log2FC: 0.358
NM_010480, 100 mg/kg, vs vehicle
  Hsp90aa1 Log2FC: 0.693
NM_010493, 100 mg/kg, vs vehicle
  Icam1 Log2FC: −0.371
NM_010546, 100 mg/kg, vs vehicle
  Ikbkb Log2FC: −0.395
NM_010562, 100 mg/kg, vs vehicle
  Ilk Log2FC: −0.143
NM_010578, 100 mg/kg, vs vehicle
  Itgb1 Log2FC: 0.106
NM_010634, 100 mg/kg, vs vehicle
  Fabp5 Log2FC: 1.1
NM_010724, 100 mg/kg, vs vehicle
  Psmb8 Log2FC: −1.07
NM_010729, 100 mg/kg, vs vehicle
  Loxl1 Log2FC: −1.1
NM_010747, 100 mg/kg, vs vehicle
  Lyn Log2FC: −0.32
NM_010754, 100 mg/kg, vs vehicle
  Smad2 Log2FC: 0.246
NM_010851, 100 mg/kg, vs vehicle
  Myd88 Log2FC: 0.261
NM_010917, 100 mg/kg, vs vehicle
  Nid1 Log2FC: −0.733
NM_011032, 100 mg/kg, vs vehicle
  P4hb Log2FC: −0.842
NM_011044, 100 mg/kg, vs vehicle
  Pek1 Log2FC: −1.88
NM_011100, 100 mg/kg, vs vehicle
  Prkacb Log2FC: −0.158
NM_011125, 100 mg/kg, vs vehicle
  Pltp Log2FC: 1.39
NM_011145, 100 mg/kg, vs vehicle
  Ppard Log2FC: −0.466
NM_011146, 100 mg/kg, vs vehicle
  Pparg Log2FC: −0.615
NM_011159, 100 mg/kg, vs vehicle
  Prkdc Log2FC: −0.568
NM_011173, 100 mg/kg, vs vehicle
  Pros1 Log2FC: −0.22
NM_011175, 100 mg/kg, vs vehicle
  Lgmn Log2FC: −0.499
NM_011187, 100 mg/kg, vs vehicle
  Psmb7 Log2FC: 0.204
NM_011210, 100 mg/kg, vs vehicle
  Ptprc Log2FC: −0.49
NM_011261, 100 mg/kg, vs vehicle
  Rein Log2FC: −0.45
NM_011311, 100 mg/kg, vs vehicle
  S100a4 Log2FC: −1.28
NM_011340, 100 mg/kg, vs vehicle
  Serpinf1 Log2FC: −0.18
NM_011434, 100 mg/kg, vs vehicle
  Sod1 Log2FC: 0.352
NM_011480, 100 mg/kg, vs vehicle
  Srebf1 Log2FC: −0.608
NM_011543, 100 mg/kg, vs vehicle
  Skp1a Log2FC: 0.227
NM_011581, 100 mg/kg, vs vehicle
  Thbs2 Log2FC: −0.831
NM_011594, 100 mg/kg, vs vehicle
  Timp2 Log2FC: −0.609
NM_011597, 100 mg/kg, vs vehicle
  Tjp2 Log2FC: 0.204
